Experimental findings from patent US8618305B2, “Sorafenib dimethyl sulphoxide solvate” (Ranbaxy Laboratories Limited, priority 2010, dated 2013) are described below.

The nature of data set [1]: Hygroscopicity of the solid. The following applies: free-flowing solid. Format: physicochemical.

Structures are written as SMILES. Read-outs that look alike come from different tables or passages of the source.

Regarding `CNC(=O)c1cc(Oc2ccc(NC(=O)Nc3ccc(Cl)c(C(F)(F)F)c3)cc2)ccn1` [Sorafenib dimethyl sulphoxide solvate, dimethyl sulphoxide solvate of 4-(4-{3-[-4-chloro-3-(trifluoromethyl)phenyl]ureido}phenoxy)-N^2-methylpyridine-2-carboxamide], the “Change on heating in a vacuum oven” value is, setting by setting: (about 120° C. and about 135° C. for about 4 hours) “Desolvation of sorafenib dimethyl sulphoxide solvate to sorafenib free base was observed”; (about 4 hours, temperature range of about 45° C. up to 110° C.) “No change was observed”. The “Temperature up to which the solid is stable towards heating” value (under reduced pressure) was no more than 110 °C. Moreover, the Hygroscopicity result in data set [1] was “non-hygroscopic”.
